{"source": "the NIST ThermoML archive (doi:10.1016/j.jct.2018.03.007)", "key": {"[1]": {"conditions": "100 kPa, Liquid; for speed of sound: Linear variable-path acoustic interferometer; for mass density: Vibrating tube method"}, "[2]": {"assay": "xn = mol fraction of the nth substance listed", "conditions": "100 kPa, Liquid, x2 = 0; for speed of sound: Linear variable-path acoustic interferometer; for mass density: Vibrating tube method"}}, "note": "Numbers after ± are expanded uncertainties."}
{"smiles": "CCn1cc[n+](C)c1.O=S(=O)([O-])O", "note": "[1-ethyl-3-methylimidazolium hydrogen sulfate]", "values": [{"measurement": "speed of sound", "setting": "[1]; 298.15 K, Frequency=2 MHz", "value": "1982.8 ± 2.8", "unit": "m/s"}, {"measurement": "mass density", "setting": "[1]; 298.15 K", "value": "1365.75 ± 2.5", "unit": "kg/m3"}, {"measurement": "speed of sound", "setting": "[1]; 303.15 K, Frequency=2 MHz", "value": "1962.9 ± 2.8", "unit": "m/s"}, {"measurement": "mass density", "setting": "[1]; 303.15 K", "value": "1362.62 ± 2.5", "unit": "kg/m3"}, {"measurement": "speed of sound", "setting": "[1]; 308.15 K, Frequency=2 MHz", "value": "1943.1 ± 2.8", "unit": "m/s"}, {"measurement": "mass density", "setting": "[1]; 308.15 K", "value": "1359.53 ± 2.5", "unit": "kg/m3"}, {"measurement": "speed of sound", "setting": "[1]; 313.15 K, Frequency=2 MHz", "value": "1923.2 ± 2.8", "unit": "m/s"}, {"measurement": "mass density", "setting": "[1]; 313.15 K", "value": "1356.41 ± 2.5", "unit": "kg/m3"}]}
{"smiles": "C[S+](C)[O-]", "note": "[dimethyl sulfoxide]", "values": [{"measurement": "speed of sound", "setting": "[1]; 298.15 K, Frequency=2 MHz", "value": "1485 ± 1.7", "unit": "m/s"}, {"measurement": "mass density", "setting": "[1]; 298.15 K", "value": "1095.33 ± 2", "unit": "kg/m3"}, {"measurement": "speed of sound", "setting": "[1]; 303.15 K, Frequency=2 MHz", "value": "1468.3 ± 1.7", "unit": "m/s"}, {"measurement": "mass density", "setting": "[1]; 303.15 K", "value": "1090.32 ± 2", "unit": "kg/m3"}, {"measurement": "speed of sound", "setting": "[1]; 308.15 K, Frequency=2 MHz", "value": "1451.1 ± 1.7", "unit": "m/s"}, {"measurement": "mass density", "setting": "[1]; 308.15 K", "value": "1085.31 ± 2", "unit": "kg/m3"}, {"measurement": "speed of sound", "setting": "[1]; 313.15 K, Frequency=2 MHz", "value": "1434.2 ± 1.7", "unit": "m/s"}, {"measurement": "mass density", "setting": "[1]; 313.15 K", "value": "1080.29 ± 2", "unit": "kg/m3"}]}
{"smiles": "C[S+](C)[O-]", "note": "[dimethyl sulfoxide] + CCn1cc[n+](C)c1.O=S(=O)([O-])O", "values": [{"measurement": "speed of sound", "setting": "[2]; 298.15 K, Frequency=2 MHz", "value": "1485 ± 1.7", "unit": "m/s"}, {"measurement": "mass density", "setting": "[2]; 298.15 K", "value": "1095.33 ± 2", "unit": "kg/m3"}, {"measurement": "speed of sound", "setting": "[2]; 303.15 K, Frequency=2 MHz", "value": "1468.3 ± 1.7", "unit": "m/s"}, {"measurement": "mass density", "setting": "[2]; 303.15 K", "value": "1090.32 ± 2", "unit": "kg/m3"}, {"measurement": "speed of sound", "setting": "[2]; 308.15 K, Frequency=2 MHz", "value": "1451.1 ± 1.7", "unit": "m/s"}, {"measurement": "mass density", "setting": "[2]; 308.15 K", "value": "1085.31 ± 2", "unit": "kg/m3"}, {"measurement": "speed of sound", "setting": "[2]; 313.15 K, Frequency=2 MHz", "value": "1434.2 ± 1.7", "unit": "m/s"}, {"measurement": "mass density", "setting": "[2]; 313.15 K", "value": "1080.29 ± 2", "unit": "kg/m3"}]}
{"smiles": "CCO", "note": "[ethanol]", "values": [{"measurement": "speed of sound", "setting": "[1]; 298.15 K, Frequency=3 MHz", "value": "1142.7 ± 1.5", "unit": "m/s"}, {"measurement": "mass density", "setting": "[1]; 298.15 K", "value": "785.26 ± 2", "unit": "kg/m3"}, {"measurement": "speed of sound", "setting": "[1]; 303.15 K, Frequency=3 MHz", "value": "1125.3 ± 1.5", "unit": "m/s"}, {"measurement": "mass density", "setting": "[1]; 303.15 K", "value": "780.98 ± 2", "unit": "kg/m3"}, {"measurement": "speed of sound", "setting": "[1]; 308.15 K, Frequency=3 MHz", "value": "1108.8 ± 1.5", "unit": "m/s"}, {"measurement": "mass density", "setting": "[1]; 308.15 K", "value": "776.66 ± 2", "unit": "kg/m3"}, {"measurement": "speed of sound", "setting": "[1]; 313.15 K, Frequency=3 MHz", "value": "1091.5 ± 1.5", "unit": "m/s"}, {"measurement": "mass density", "setting": "[1]; 313.15 K", "value": "772.28 ± 2", "unit": "kg/m3"}]}
{"smiles": "CCO", "note": "[ethanol] + CCn1cc[n+](C)c1.O=S(=O)([O-])O", "values": [{"measurement": "speed of sound", "setting": "[2]; 298.15 K, Frequency=3 MHz", "value": "1142.7 ± 1.5", "unit": "m/s"}, {"measurement": "mass density", "setting": "[2]; 298.15 K", "value": "785.26 ± 2", "unit": "kg/m3"}, {"measurement": "speed of sound", "setting": "[2]; 303.15 K, Frequency=3 MHz", "value": "1125.3 ± 1.5", "unit": "m/s"}, {"measurement": "mass density", "setting": "[2]; 303.15 K", "value": "780.98 ± 2", "unit": "kg/m3"}, {"measurement": "speed of sound", "setting": "[2]; 308.15 K, Frequency=3 MHz", "value": "1108.8 ± 1.5", "unit": "m/s"}, {"measurement": "mass density", "setting": "[2]; 308.15 K", "value": "776.66 ± 2", "unit": "kg/m3"}, {"measurement": "speed of sound", "setting": "[2]; 313.15 K, Frequency=3 MHz", "value": "1091.5 ± 1.5", "unit": "m/s"}, {"measurement": "mass density", "setting": "[2]; 313.15 K", "value": "772.28 ± 2", "unit": "kg/m3"}]}
{"smiles": "CCCO", "note": "[propan-1-ol]", "values": [{"measurement": "speed of sound", "setting": "[1]; 298.15 K, Frequency=2 MHz", "value": "1206.1 ± 1.6", "unit": "m/s"}, {"measurement": "mass density", "setting": "[1]; 298.15 K", "value": "799.96 ± 2", "unit": "kg/m3"}, {"measurement": "speed of sound", "setting": "[1]; 303.15 K, Frequency=2 MHz", "value": "1189.1 ± 1.6", "unit": "m/s"}, {"measurement": "mass density", "setting": "[1]; 303.15 K", "value": "795.92 ± 2", "unit": "kg/m3"}, {"measurement": "speed of sound", "setting": "[1]; 308.15 K, Frequency=2 MHz", "value": "1172.2 ± 1.6", "unit": "m/s"}, {"measurement": "mass density", "setting": "[1]; 308.15 K", "value": "791.82 ± 2", "unit": "kg/m3"}, {"measurement": "speed of sound", "setting": "[1]; 313.15 K, Frequency=2 MHz", "value": "1155.4 ± 1.6", "unit": "m/s"}, {"measurement": "mass density", "setting": "[1]; 313.15 K", "value": "787.73 ± 2", "unit": "kg/m3"}]}
{"smiles": "CCCO", "note": "[propan-1-ol] + CCn1cc[n+](C)c1.O=S(=O)([O-])O", "values": [{"measurement": "speed of sound", "setting": "[2]; 298.15 K, Frequency=2 MHz", "value": "1206.1 ± 1.6", "unit": "m/s"}, {"measurement": "mass density", "setting": "[2]; 298.15 K", "value": "799.96 ± 2", "unit": "kg/m3"}, {"measurement": "speed of sound", "setting": "[2]; 303.15 K, Frequency=2 MHz", "value": "1189.1 ± 1.6", "unit": "m/s"}, {"measurement": "mass density", "setting": "[2]; 303.15 K", "value": "795.92 ± 2", "unit": "kg/m3"}, {"measurement": "speed of sound", "setting": "[2]; 308.15 K, Frequency=2 MHz", "value": "1172.2 ± 1.6", "unit": "m/s"}, {"measurement": "mass density", "setting": "[2]; 308.15 K", "value": "791.82 ± 2", "unit": "kg/m3"}, {"measurement": "speed of sound", "setting": "[2]; 313.15 K, Frequency=2 MHz", "value": "1155.4 ± 1.6", "unit": "m/s"}, {"measurement": "mass density", "setting": "[2]; 313.15 K", "value": "787.73 ± 2", "unit": "kg/m3"}]}
